From US9867798B2, “Ladostigil therapy for immunomodulation” (priority 2012, dated 2018)

Biological target: T1, MAO-A (Rattus norvegicus, UniProt P21396)
T1 construct: from tissue; host or cells: heart of aged Wistar rats after chronic oral dosing
T1 sequence (P21396 1-526): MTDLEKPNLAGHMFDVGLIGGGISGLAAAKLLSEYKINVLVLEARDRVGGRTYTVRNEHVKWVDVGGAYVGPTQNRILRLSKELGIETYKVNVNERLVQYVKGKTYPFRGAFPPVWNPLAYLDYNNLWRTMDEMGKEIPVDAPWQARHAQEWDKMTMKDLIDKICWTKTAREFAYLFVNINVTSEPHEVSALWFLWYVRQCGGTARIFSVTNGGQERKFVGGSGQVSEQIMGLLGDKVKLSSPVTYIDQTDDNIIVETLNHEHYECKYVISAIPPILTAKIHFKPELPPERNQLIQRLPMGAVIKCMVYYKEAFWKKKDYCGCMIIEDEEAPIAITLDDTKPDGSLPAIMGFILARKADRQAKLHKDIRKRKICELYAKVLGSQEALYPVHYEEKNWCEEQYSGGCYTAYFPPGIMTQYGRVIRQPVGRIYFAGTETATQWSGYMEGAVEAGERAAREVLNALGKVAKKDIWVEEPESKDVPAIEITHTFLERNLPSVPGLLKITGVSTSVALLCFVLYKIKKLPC
Assay: MAO-A activity in heart of treated rats
Type: in vivo
Conditions: read-out: MAO-A activity in the heart inhibited

For C#CCN[C@@H]1CCc2ccc(OC(=O)N(C)CC)cc21 [Ladostigil, R(+)-6-(N-methyl, N-ethyl-carbamoyloxy)-N′-propargyl-1-aminoindan], the inhibition at 8.5 mg/kg/day was 50 to 60%.
